{
  "source": "patent US7291738B2",
  "about": "(dated 2007)",
  "data": [
    {"smiles": "Cc1ncccc1Oc1ccc(NC(=O)Nc2ccc3[nH]c4c(c3c2)CCN(C(=O)OC(C)(C)C)CC4)cn1", "values": [
      {"measurement": "melting point", "value": "173 to 175", "unit": "°C"}
    ]},
    {"smiles": "Cc1ncccc1Oc1ccc(NC(=O)Nc2ccc3[nH]c4c(c3c2)CCNCC4)cn1", "values": [
      {"measurement": "melting point", "value": "205 to 207", "unit": "°C"}
    ]},
    {"smiles": "Cc1ncccc1Oc1ccc(NC(=O)N2CCc3c(n(C)c4ccccc34)CC2)cn1", "values": [
      {"measurement": "melting point", "value": "159 to 160", "unit": "°C"}
    ]},
    {"smiles": "Cc1ncccc1Oc1ccc(NC(=O)NCCc2ccccc2)cn1", "values": [
      {"measurement": "melting point", "value": "136 to 138", "unit": "°C"}
    ]}
  ]
}
